Test results taken from patent US8217176B2, “Fused heterocyclic derivative and use thereof” (Takeda Pharmaceutical Company Limited, priority 2008, dated 2012).
Counter-ions that a name gives are not always drawn.

Test system: NIH-3T3/Gli reporter cells
Assay: Evaluation of compound: Shh-N-induced luciferase activity in NIH-3T3/Gli reporter cells (Smo inhibitory action)
Type: cell-based
Conditions: 48 hr; for inhibition at 1 µM: NIH3T3, 1 μM compound, mouse Shh-N end fragment supernatant, read-out: inhibition rate (%) at 1 μM; for IC50: NIH3T3, mouse Shh-N end fragment supernatant, read-out: IC50 value (compound concentration necessary for achieving 50% of the maximum value of inhibition rate)
Experimental: HEK293 cells were grown in D-MEM medium (Invitrogen) containing 10% fetal bovine serum in a 10 cm dish and pcDNA3.1/mShh-N was introduced into the cells using FuGENE6 (Roche Applied Science). Thereafter, the HEK293 cells were cultured in a carbon dioxide gas incubator at 37° C. for 24 hours, and the medium was exchanged with D-MEM medium (Invitrogen) containing 2% fetal bovine serum. After culturing for 48 hr, a culture supernatant containing recombinant type mouse Shh-N end fragment was obtained by filtration using a filter ([…]).
Using D-MEM (Invitrogen) containing 10% fetal bovine serum, expression plasmid pcDNA3.1 and Gli reporter plasmid (pGL3/δ-cry promoter, 8×Gli binding site) produced by the method of Experimental Example 1 were introduced into NIH-3T3 cells grown in a 10 cm dish by the use of FuGENE6 (Roche Applied Science).
After culture for 24 hr, the cells were recovered, suspended in D-MEM medium containing 10% fetal bovine serum and supplemented with Geneticin (Life Technologies Oriental, Inc.) to a final concentration of 500 μg/ml, diluted to 10^4 cells/ml, plated on a 96 well plate, and cultured in a carbon dioxide gas incubator at 37° C. to give Geneticin resistant transformed cell line.
The obtained transformed cell line was cultured in a 96 well plate, mouse Shh-N end fragment obtained in Experimental Example 3 was added, and NIH-3T3/Gli reporter cell, which is a cell line capable of induction of luciferase expression, was selected.
NIH-3T3/Gli reporter cells cultured in D-MEM (Invitrogen) containing 10% fetal bovine serum were plated in a 96 well white plate at 1×10^4 cells/well, and cultured overnight in a carbon dioxide gas incubator at 37° C. The medium was removed, a compound (50 μl) and culture supernatant of mouse Shh-N end fragment-expressing HEK293 (D-MEM medium containing 2% fetal bovine serum, 50 μl) were added, and the cells were cultured for 48 hr in a carbon dioxide gas incubator at 37° C. Bright-Glo (Promega, 50 μl) was added, and the mixture was stirred, after which luciferase activity was measured by EnVision (PerkinElmer). The inhibition rate was calculated based on the luciferase activity of the control without addition of the compound as 100. The concentration of the compound and the inhibition rate were analyzed by PRISM3.00 (software of GraphPad), based on which the IC50 value (compound concentration necessary for achieving 50% of the maximum value of inhibition rate) of the compound was calculated.

Structure (SMILES)	inhibition at 1 µM	IC50
CCN(CC)CCN(C)C(=O)c1sc2c(c1OC)c(=O)n(CC(=O)Nc1ccccc1)c1ccccc21 [Example 52, N-[2-(diethylamino)ethyl]-3-methoxy-N-methyl-4-oxo-5-[2-oxo-2-(phenylamino)ethyl]-4,5-dihydrothieno[3,2-c]quinoline-2-carboxamide hydrochloride]	95%	≤ 1 µM
CCN(CC)CCN(C)C(=O)c1sc2c(c1OC)c(=O)n(Cc1ccccn1)c1ccccc21 [Example 3, N-[2-(diethylamino)ethyl]-3-methoxy-N-methyl-4-oxo-5-(pyridin-2-ylmethyl)-4,5-dihydrothieno[3,2-c]quinoline-2-carboxamide ditrifluoroacetate]	100%	≤ 1 µM
CCOc1c(C(=O)NCCN2CCCC2)sc2c1c(=O)n(CC(=O)c1ccccc1)c1ccccc21 [Example 43, 3-ethoxy-4-oxo-5-(2-oxo-2-phenylethyl)-N-(2-pyrrolidin-1-ylethyl)-4,5-dihydrothieno[3,2-c]quinoline-2-carboxamide]	100%	≤ 1 µM
CCOc1c(C(=O)N(C)CCN(CC)CC)sc2c1c(=O)n(CC(=O)c1ccccc1)c1ccccc21 [Example 45, N-[2-(diethylamino)ethyl]-3-ethoxy-N-methyl-4-oxo-5-(2-oxo-2-phenylethyl)-4,5-dihydrothieno[3,2-c]quinoline-2-carboxamide hydrochloride]	100%	≤ 1 µM
COc1c(C(=O)N[C@H]2CC[C@H](O)CC2)n(C)c2c1c(=O)n(CC(=O)c1ccccc1)c1ccccc21 [Example 118, N-(trans-4-hydroxycyclohexyl)-3-methoxy-1-methyl-4-oxo-5-(2-oxo-2-phenylethyl)-4,5-dihydro-1H-pyrrolo[3,2-c]quinoline-2-carboxamide]	100%	
CCOC(=O)Cn1c(=O)c2c(OC)c(C(=O)N(C)CCN(CC)CC)sc2c2ccccc21 [Example 53, ethyl [2-{[2-(diethylamino)ethyl](methyl)carbamoyl}-3-methoxy-4-oxothieno[3,2-c]quinolin-5(4H)-yl]acetate]	95%	≤ 1 µM
CCN(CC)CCN(C)C(=O)c1sc2c(c1OC)c(=O)n(CC(=O)C(C)(C)C)c1ccccc21 [Example 50, N-[2-(diethylamino)ethyl]-5-(3,3-dimethyl-2-oxobutyl)-3-methoxy-N-methyl-4-oxo-4,5-dihydrothieno[3,2-c]quinoline-2-carboxamide]	100%	≤ 1 µM
COc1c(C(=O)NC2CCN(c3ccncc3)CC2)n(C)c2c1c(=O)n(CC(=O)c1ccccc1)c1ccccc21 [Example 563, 3-methoxy-1-methyl-4-oxo-5-(2-oxo-2-phenylethyl)-N-(1-pyridin-4-ylpiperidin-4-yl)-4,5-dihydro-1H-pyrrolo[3,2-c]quinoline-2-carboxamide]	100%	
CCc1cc2c(c(OCC(F)(F)F)c(C(=O)NC3CCN(C(=O)CO)CC3)n2C)c(=O)n1Cc1ccccc1 [Example 654, 5-benzyl-6-ethyl-N-[1-(hydroxyacetyl)piperidin-4-yl]-1-methyl-4-oxo-3-(2,2,2-trifluoroethoxy)-4,5-dihydro-1H-pyrrolo[3,2-c]pyridine-2-carboxamide]	100%	
COc1c(C(=O)N(C)CCNC(C)C)sc2c1c(=O)n(CC(=O)c1ccccc1)c1ccccc21 [Example 115, 3-methoxy-N-methyl-N-{2-[(1-methylethyl)amino]ethyl}-4-oxo-5-(2-oxo-2-phenylethyl)-4,5-dihydrothieno[3,2-c]quinoline-2-carboxamide hydrochloride]	100%	≤ 1 µM
COc1c(C(=O)NC2CCN(c3ccncc3)CC2)n(C)c2cc(C)n(CC(=O)c3ccccc3)c(=O)c12 [Example 135, 3-methoxy-1,6-dimethyl-4-oxo-5-(2-oxo-2-phenylethyl)-N-(1-pyridin-4-ylpiperidin-4-yl)-4,5-dihydro-1H-pyrrolo[3,2-c]pyridine-2-carboxamide]	100%	
